What was measured:
[1] = system: barnyardgrass; assay: Test A preemergence; format: in vivo, Echinochloa crus-galli; settings: Echinochloa crus-galli, pre-emergence, 240 h, read-out: Barnyardgrass plant response rating
Method in brief: (§1)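 Injury scores run from 0, no effect, to 100, complete control, judged by eye against untreated plants roughly 10 days after treatment. Chemicals carried a surfactant in a non-phytotoxic solvent and went onto loam–sand soil preemergence or onto one- to two-leaf seedlings postemergence.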

[2] = system: large (Lg) crabgrass; assay: Test A preemergence; format: in vivo, Digitaria sanguinalis; settings: Digitaria sanguinalis, pre-emergence, 240 h, read-out: Crabgrass, Large plant response rating
Method in brief: as §1

[3] = system: wheat; assay: Test A preemergence; format: in vivo, Triticum aestivum; settings: Triticum aestivum, pre-emergence, 240 h, read-out: Wheat plant response rating
Method in brief: as §1

[4] = system: giant foxtail; assay: Test A postemergence; format: in vivo, Setaria faberii; settings: Setaria faberi, post-emergence, 240 h
Method in brief: as §1

[5] = system: morningglory; assay: Test A postemergence; format: in vivo, Ipomoea spp.; settings: Ipomoea, post-emergence, 240 h
Method in brief: as §1

[6] = system: corn; assay: Test A postemergence; format: in vivo, Zea mays; settings: Zea mays, post-emergence, 240 h
Method in brief: as §1

[7] = system: Heteranthera limosa; assay: Test B flooded paddy test; format: in vivo; settings: Heteranthera limosa, Flood, 250 g ai/ha; 0 to 100 scale where 0 is no effect and 100 is complete control; read-out: Plant response rating, Ducksalad
Method in brief: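 Greenhouse flooded-pot test: compounds dosed into 3 cm standing water over 2-leaf plants, flood held constant. Rated visually after 13–15 days on 0–100 (complete control = 100); a dash marks no test result.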

[8] = system: Italian ryegrass; assay: Test C preemergence; format: in vivo, Lolium multiflorum; settings: Lolium multiflorum, pre-emergence
Text: Seeds of plant species selected from blackgrass (Alopecurus myosuroides), Italian ryegrass (Lolium multiflorum), wheat, winter (winter wheat, Triticum aestivum), galium (catchweed bedstraw, Galium aparine), corn (Zea mays), large (Lg) crabgrass (Digitaria sanguinalis), giant foxtail (Setaria faberii), johnsongrass (Sorghum halepense), lambsquarters (Chenopodium album), morningglory (Ipomoea coccinea), yellow nutsedge (Cyperus esculentus), pigweed (Amaranthus retroflexus), ragweed (common ragweed, Ambrosia elatior), soybean (Glycine max), barnyardgrass (Echinochloa crus-galli), oilseed rape (Brassica napus), waterhemp (common waterhemp, Amaranthus rudis), kochia (Kochia scoparia), wild oat (Avena fatua), surinam grass (Brachiaria decumbens), foxtail, green (green foxtail, Setaria viridis), goosegrass (Eleusine indica), bromegrass, downy (downy bromegrass, Bromus tectorum), nightshade (eastern black nightshade, Solanum ptycanthum), cocklebur (common cocklebur, Xanthium strumarium), cupgrass, woolly (woolly cupgrass, Eriochloa villosa), bermudagrass (Cynodon dactylon), sunflower, (common oilseed sunflower, Helianthus annuus), Russian thistle (Salsola kali), and velvetleaf (Abutilon theophrasti) were planted into a blend of loam soil and sand and treated preemergence with test chemicals formulated in a non-phytotoxic solvent mixture which included a surfactant.
At the same time, plants selected from these crop and weed species and also barley, winter (winter barley, Hordeum vulgare), windgrass (Apera spica-venti), chickweed (common chickweed, Stellaria media), deadnettle (henbit deadnettle, Lamium amplexicaule), and canarygrass (littleseed canarygrass, Phalaris minor) were planted in pots containing Redi-Earth® planting medium (Scotts Company, 14111 Scottslawn Road, Marysville, Ohio 43041) comprising spaghnum peat moss, vermiculite, wetting agent and starter nutrients and treated with postemergence applications of test chemicals formulated in the same manner. Plants ranged in height from 2 to 18 cm (1- to 4-leaf stage) for postemergence treatments. Treated plants and controls were maintained in a greenhouse for 13 to 15 days, after which time all species were compared to controls and visually evaluated. Plant response ratings, summarized in Table C, are based on a scale of 0 to 100 where 0 is no effect and 100 is complete control. A dash (-) response means no test result.

[9] = system: ragweed; assay: Test C preemergence; format: in vivo, Ambrosia elatior; settings: Ambrosia artemisiifolia, pre-emergence
Method in brief: (§2)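 Sown in loam/sand → sprayed pre-emergence; or grown to 1–4 leaves in peat mix → sprayed post-emergence. Same solvent/surfactant formulation both ways. Greenhouse 13–15 d. Score 0–100 visual.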

[10] = system: corn; assay: Test C postemergence; format: in vivo, Zea mays; settings: Zea mays, post-emergence
Method in brief: as §2

[11] = system: morningglory; assay: Test C postemergence; format: in vivo, Ipomoea coccinea; settings: Ipomoea, post-emergence
Method in brief: as §2

[12] = system: pigweed; assay: Test C postemergence; format: in vivo, Amaranthus retroflexus; settings: Amaranthus retroflexus, post-emergence
Method in brief: as §2

[13] = system: kochia; assay: Test C postemergence; format: in vivo, Kochia scoparia; settings: Bassia scoparia, post-emergence
Method in brief: as §2

[14] = system: wild oat; assay: Test C postemergence; format: in vivo, Avena fatua; settings: Avena fatua, post-emergence
Method in brief: as §2

[15] = 125 g ai/ha, 0 to 100 scale where 0 is no effect and 100 is complete control
[16] = 500 g ai/ha, 0 to 100 scale, 0 no effect, 100 complete control, approx. 10 days

SMILES: Clc1cnc(Oc2ccccc2-n2cc(Br)cn2)nc1 [Compound 7, 2-[2-(4-bromo-1H-pyrazol-1-yl)phenoxy]-5-chloropyrimidine]
- pest or weed control at 125 g/ha [1, 15]: 80%
- pest or weed control at 500 g/ha [1, 16]: 100%
- pest or weed control at 125 g/ha [2, 15]: 100%
- pest or weed control at 500 g/ha [2, 16]: 100%
- plant injury at 125 g/ha [3, 15]: 0%
- plant injury at 500 g/ha [3, 16]: 20%
- pest or weed control at 125 g/ha ([4]; 125 g ai/ha, 0 to 100 scale where 0 is no effect and 100 is complete control, read-out: Plant response rating, Foxtail, Giant): 90%
- pest or weed control at 500 g/ha ([4]; 500 g ai/ha, 0 to 100 scale, 0 no effect, 100 complete control, read-out: Plant response rating Foxtail, Giant): 100%
- pest or weed control at 125 g/ha ([5]; 125 g ai/ha, 0 to 100 scale where 0 is no effect and 100 is complete control, read-out: Plant response rating, Morningglory): 70%
- pest or weed control at 500 g/ha ([5]; 500 g ai/ha, 0 to 100 scale, 0 no effect, 100 complete control, read-out: Plant response rating Morningglory): 100%
- Corn plant response rating (crop injury, 0 = no effect, 100 = complete kill) at 125 g/ha [6, 15]: 30%
- plant injury at 500 g/ha ([6]; 500 g ai/ha, 0 to 100 scale, 0 no effect, 100 complete control, read-out: Plant response rating Corn): 50%
- pest or weed control at 250 g/ha [7]: 80%
- pest or weed control at 62 g/ha ([8]; 62 g ai/ha, preemergence, scale 0 (no effect) to 100 (complete control), read-out: Ryegrass, Italian plant response rating): 0%
- pest or weed control at 125 g/ha ([8]; 125 g ai/ha, preemergence, scale 0 (no effect) to 100 (complete control), read-out: Ryegrass, Italian plant response rating): 5%
- pest or weed control at 250 g/ha ([8]; 250 g ai/ha, preemergence, scale 0 (no effect) to 100 (complete control), read-out: Ryegrass, Italian plant response rating): 40%
- pest or weed control at 31 g/ha ([8]; Preemergence, 31 g ai/ha, scale 0 to 100, 0 no effect, 100 complete control, read-out: Plant response rating, Ryegrass, Italian): 0%
- pest or weed control at 62 g/ha ([9]; 62 g ai/ha, preemergence, scale 0 (no effect) to 100 (complete control), read-out: Ragweed plant response rating): 0%
- pest or weed control at 125 g/ha ([9]; 125 g ai/ha, preemergence, scale 0 (no effect) to 100 (complete control), read-out: Ragweed plant response rating): 5%
- pest or weed control at 250 g/ha ([9]; 250 g ai/ha, preemergence, scale 0 (no effect) to 100 (complete control), read-out: Ragweed plant response rating): 40%
- pest or weed control at 31 g/ha ([9]; Preemergence, 31 g ai/ha, scale 0 to 100, 0 no effect, 100 complete control, read-out: Plant response rating, Ragweed): 0%
- plant injury at 125 g/ha ([10]; 125 g ai/ha, postemergence, read-out: Plant response rating (0 to 100), Corn): 60%
- plant injury at 250 g/ha ([10]; 250 g ai/ha, postemergence, read-out: Plant response rating (0 to 100), Corn): 75%
- Corn plant response rating (crop injury, 0 = no effect, 100 = complete kill) at 62 g/ha ([10]; Postemergence, 62 g ai/ha, scale 0 to 100 (0 no effect, 100 complete control)): 25%
- pest or weed control at 125 g/ha ([11]; 125 g ai/ha, postemergence, read-out: Plant response rating (0 to 100), Morningglory): 95%
- pest or weed control at 31 g/ha ([11]; Postemergence, 31 g ai/ha, scale 0 to 100 (0 no effect, 100 complete control), 13 to 15 days, read-out: Plant response rating, Morningglory): 75%
- pest or weed control at 62 g/ha ([11]; Postemergence, 62 g ai/ha, scale 0 to 100 (0 no effect, 100 complete control), read-out: Plant response rating, Morningglory): 80%
- pest or weed control at 125 g/ha ([12]; 125 g ai/ha, postemergence, read-out: Plant response rating (0 to 100), Pigweed): 100%
- pest or weed control at 250 g/ha ([12]; 250 g ai/ha, postemergence, read-out: Plant response rating (0 to 100), Pigweed): 100%
- pest or weed control at 31 g/ha ([12]; Postemergence, 31 g ai/ha, scale 0 to 100 (0 no effect, 100 complete control), 13 to 15 days, read-out: Plant response rating, Pigweed): 100%
- pest or weed control at 62 g/ha ([12]; Postemergence, 62 g ai/ha, scale 0 to 100 (0 no effect, 100 complete control), read-out: Plant response rating, Pigweed): 100%
- pest or weed control at 125 g/ha ([13]; 125 g ai/ha, postemergence, read-out: Plant response rating (0 to 100), Kochia): 100%
- pest or weed control at 250 g/ha ([13]; 250 g ai/ha, postemergence, read-out: Plant response rating (0 to 100), Kochia): 100%
- pest or weed control at 31 g/ha ([13]; Postemergence, 31 g ai/ha, scale 0 to 100 (0 no effect, 100 complete control), 13 to 15 days, read-out: Plant response rating, Kochia): 98%
- pest or weed control at 62 g/ha ([13]; Postemergence, 62 g ai/ha, scale 0 to 100 (0 no effect, 100 complete control), read-out: Plant response rating, Kochia): 98%
- pest or weed control at 125 g/ha ([14]; 125 g ai/ha, postemergence, read-out: Plant response rating (0 to 100), Oat, Wild): 35%
- pest or weed control at 250 g/ha ([14]; 250 g ai/ha, postemergence, read-out: Plant response rating (0 to 100), Oat, Wild): 55%
- pest or weed control at 31 g/ha ([14]; Postemergence, 31 g ai/ha, scale 0 to 100 (0 no effect, 100 complete control), 13 to 15 days, read-out: Plant response rating, Oat, Wild): 5%
- pest or weed control at 62 g/ha ([14]; Postemergence, 62 g ai/ha, scale 0 to 100 (0 no effect, 100 complete control), read-out: Plant response rating, Oat, Wild): 35%

Reference: patent publication US9695155B2, “Herbicidal substituted pyrimidinyloxy benzene compounds” (E. I. DU PONT DE NEMOURS AND COMPANY, priority 2013, dated 2017)
